The test system of the experiment is nuclei of H460 cells. Description: Fluorescence microscopy of labeled H460 cells. To be noted: 0.4 μM, 5 h at 37 °C, co-stain TO-PRO-3. It is filed as cell-based. The procedure:
Fluorescence images of nuclei of H460 cells labeled with DC-45-A2 [4.0 μM] or dideoxy-DC-45-A2 [0.4 μM] for 5 h at 37° C. is provided in FIG. 15. […] The scale bar represents 10 μm.
Experimental Details for Fluorescence Microscopy: H460 cells were grown on 22 mm glass coverslips and allowed to attach for 24 h. Subconfluent H460 cells (50-60% confluency) were treated with drugs of desired concentration and incubated at 37° C. for 5 h. The coverslips were washed three times with warm PBS. The cells were then fixed with 4% paraformaldehyde in PBS at 23° C. for 15 min. At 23° C., the cells were permeablized with 0.1% Triton-X100 in PBS for 15 min and blocked with 5% BSA for 40 min. After two washes with PBS, the cells were incubated with 0.2 µM TO-PRO-3 (Invitrogen) in PBS at 23° C. for 15 min. The coverslips were washed three times with PBS and mounted with Mowiol on microscope slides. Fluorescent images were captured on an Olympus IX71 inverted microscope equipped with a 60× water-immersion objective, a Nikon Intensilight Illuminator, and an Andor iXon EMCCD camera. Imaging data of DC-45-A2 and dideoxy DC-45-A2 were collected with a 387/11 nm excitation filter and a 510/84 nm emission filter purchased from Semrock. TO-PRO-3 dye was imaged using Cy5 channels. The images were complied and colorized using ImageJ software.

Dideoxy-DC-45-A2: the localization in cells entry was “co-localizes with nuclear DNA”.

Source of the values: patent US9102697B2, “Trioxacarcins and uses thereof” (President and Fellows of Harvard College, priority 2010, dated 2015).
